Test results: patent US8575091B1, “Amylin analogues and pharmaceutical compositions thereof” (Novo Nordisk A/S, priority 2012, dated 2013)
Where two headings read alike, the source gives them in different places. Numbered stars: 1 amine (or outer) side, 2 acyl side, 3 side chain; on linkers, the order of the positions; unused ones are H or OH. Bridge positions count the residues as written; N and C are the ends. Side chains are listed from the residue outwards. Peptide text beside a SMILES is read from it. * marks the point of attachment. C20 diacid = O=C(O)CCCCCCCCCCCCCCCCCCC(=O)*; γGlu = O=C(O)[C@H](CCC(=O)[*:2])N[*:1]; AEEA = NCCOCCOCC(=O)O

Key:
[1] = molecular target: T1, human calcitonin receptor (Homo sapiens, UniProt P30988); assay: Assay (VII) binding to the human calcitonin receptor (SPA, 125I-Calcitonin); settings: read-out: hCTR bind IC50;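 note: cell membranes coupled to SPA beads, competitive displacement read by scintillation counting, IC50 derived from a one-site competition fit as a measure of receptor affinity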
T1 construct: expressed in transfected cells
T1 sequence (P30988 25-474): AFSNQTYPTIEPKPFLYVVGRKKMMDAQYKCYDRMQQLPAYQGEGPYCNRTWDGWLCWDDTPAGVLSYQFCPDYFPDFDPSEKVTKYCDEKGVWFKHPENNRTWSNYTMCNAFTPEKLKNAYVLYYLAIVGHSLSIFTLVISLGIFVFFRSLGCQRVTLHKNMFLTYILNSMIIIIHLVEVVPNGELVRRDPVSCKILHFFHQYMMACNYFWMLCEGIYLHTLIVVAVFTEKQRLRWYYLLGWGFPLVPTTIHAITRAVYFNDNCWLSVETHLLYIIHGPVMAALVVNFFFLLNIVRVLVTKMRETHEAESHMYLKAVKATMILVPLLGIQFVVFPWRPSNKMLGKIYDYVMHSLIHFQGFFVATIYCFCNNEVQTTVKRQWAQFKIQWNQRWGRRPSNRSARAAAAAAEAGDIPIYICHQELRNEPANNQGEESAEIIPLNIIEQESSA

[2] = molecular target: T2, human amylin receptor (amylin 3(a) receptor: human calcitonin receptor + RAMP-3) (Homo sapiens, UniProt O60896+P30988); assay: Assay (II)a functional assay, human amylin receptor (CRE luciferase, BHK cells); assay type: cell-based; settings: for EC50: read-out: hAmylin-R funct. EC50
T2 construct: expressed in transfected cells
T2 sequence (P30988 25-474): T1 sequence (P30988 25-474)
T2 sequence (O60896 24-148 partner): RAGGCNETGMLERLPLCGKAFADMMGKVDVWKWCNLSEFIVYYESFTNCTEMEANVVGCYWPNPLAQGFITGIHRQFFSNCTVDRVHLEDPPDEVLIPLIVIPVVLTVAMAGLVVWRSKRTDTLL

human amylin receptor = molecular target: T3, human amylin receptor (Homo sapiens, UniProt O60896+P30988); assay: Assay (V) binding to the human amylin receptor (SPA, 125I-rat amylin); settings: human amylin receptor membranes, SPA; read-out: hAmylin-R bind IC50
T3 construct: expressed in transfected cells
T3 sequence (P30988 25-474): T1 sequence (P30988 25-474)
T3 sequence (O60896 24-148 partner): T2 sequence (O60896 24-148 partner)
Outline: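 SPA competition binding on membranes from Amylin 3(a)/CRE-luc cells, 35 ng/μL membranes with 0.05 mg/well beads. Buffer 50 mM Hepes pH 7.4, 1 mM CaCl2, 5 mM MgCl2, 0.1% OA, 0.02% Tween20. IC50 from one-site competition fit as affinity measure.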

[3] = molecular target: T1, human calcitonin receptor; assay: Assay (II)a functional assay, human calcitonin receptor (CRE luciferase, BHK cells);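 note: luminescence from a CRE-driven luciferase reporter, read by single photon counting after cells were exposed to test samples for 3 h at 37 °C under 5% CO2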; assay type: cell-based; settings: read-out: hCTR funct. EC50
[4] = functional assay, human amylin receptor
[5] = Table 6, human functional selectivity (hCTR EC50 / hAmylin-R EC50)
[6] = Table 6a, human functional selectivity (hCTR EC50 / hAmylin-R EC50), at least 5
[7] = Table 6j, hCTR funct. EC50 / hAmylin-R funct. EC50
[8] = Table 6j, human amylin receptor functional
[9] = Table 6k, hCTR funct. EC50 / hAmylin-R funct. EC50

Row | IC50 [1] [pM] | EC50 [2, 4] [pM] | IC50 (human amylin receptor) [pM] | EC50 [3] [pM] | Ratio hCT/hAmylin funct. [2, 5] | Ratio hCT/hAmylin funct. [2, 6] | Ratio hCT/hAmylin funct. [2, 7] | EC50 [2, 8] [pM] | Ratio hCT/hAmylin funct. [2, 9] | SMILES
1 | 31400 | 351 | 695 | 5360 | – | – | – | – | – | CC[C@H](C)[C@H](NC(=O)[C@H](C)NC(=O)CNC(=O)[C@H](Cc1ccccc1)NC(=O)[C@H](CC(N)=O)NC(=O)[C@@H]1CCCN1C(=O)[C@H](CO)NC(=O)[C@H](CO)NC(=O)[C@H](Cc1c[nH]cn1)NC(=O)[C@H](CCCNC(=N)N)NC(=O)[C@H](CC(C)C)NC(=O)[C@H](Cc1ccccc1)NC(=O)[C@H](CC(N)=O)NC(=O)[C@H](C)NC(=O)[C@H](CC(C)C)NC(=O)[C@H](CCCNC(=N)N)NC(=O)[C@H](CCC(N)=O)NC(=O)[C@@H](NC(=O)[C@H](C)NC(=O)[C@@H]1CSSC[C@H](NC(=O)[C@@H](N)CCCCNC(=O)CC[C@H](NC(=O)CCCCCCCCCCCCCCCCCCC(=O)O)C(=O)O)C(=O)N[C@@H](CC(N)=O)C(=O)N[C@@H]([C@@H](C)O)C(=O)N[C@@H](C)C(=O)N[C@@H]([C@@H](C)O)C(=O)N1)[C@@H](C)O)C(=O)N1CCC[C@H]1C(=O)N[C@@H](CO)C(=O)N[C@@H](CO)C(=O)N[C@H](C(=O)N[C@@H](CC(N)=O)C(=O)N[C@H](C(=O)NCC(=O)N[C@@H](CO)C(=O)N[C@@H](Cc1c[nH]cn1)C(=O)N[C@H](C(=O)N[C@@H](Cc1ccc(O)cc1)C(N)=O)[C@@H](C)O)C(C)C)[C@@H](C)O [Example 60]
2 | 8110 | 51 | 122 | 554 | – | – | – | – | – | CC[C@H](C)[C@H](NC(=O)[C@H](C)NC(=O)CNC(=O)[C@H](Cc1ccccc1)NC(=O)[C@H](CC(N)=O)NC(=O)[C@@H]1CCCN1C(=O)[C@H](CO)NC(=O)[C@H](CO)NC(=O)[C@H](Cc1c[nH]cn1)NC(=O)[C@H](CCCNC(=N)N)NC(=O)[C@H](CC(C)C)NC(=O)[C@H](Cc1ccccc1)NC(=O)[C@H](Cc1c[nH]cn1)NC(=O)[C@H](C)NC(=O)[C@H](CC(C)C)NC(=O)[C@H](CCCNC(=N)N)NC(=O)[C@H](CCC(N)=O)NC(=O)[C@@H](NC(=O)[C@H](C)NC(=O)[C@@H]1CSSC[C@H](NC(=O)[C@@H](N)CCCCNC(=O)COCCOCCNC(=O)CC[C@H](NC(=O)CCCCCCCCCCCCCCCCCCC(=O)O)C(=O)O)C(=O)N[C@@H](CC(N)=O)C(=O)N[C@@H]([C@@H](C)O)C(=O)N[C@@H](C)C(=O)N[C@@H]([C@@H](C)O)C(=O)N1)[C@@H](C)O)C(=O)N1CCC[C@H]1C(=O)N[C@@H](CO)C(=O)N[C@@H](CO)C(=O)N[C@H](C(=O)N1CCC[C@H]1C(=O)N[C@H](C(=O)NCC(=O)N[C@@H](CO)C(=O)N[C@@H](CC(N)=O)C(=O)N[C@H](C(=O)N[C@@H](Cc1ccc(O)cc1)C(N)=O)[C@@H](C)O)C(C)C)[C@@H](C)O [Example 61] (H-K([AEEA-γGlu-C20 diacid])CNTATCATQRLAHFLRHSSPNFGAIPSSTPVGSNTY-NH2; disulfide 2-7)
3 | 130000 | 37 | 825 | 5130 | – | – | – | – | – | CC[C@H](C)[C@H](NC(=O)[C@H](C)NC(=O)CNC(=O)[C@H](Cc1ccccc1)NC(=O)[C@H](CC(N)=O)NC(=O)[C@@H]1CCCN1C(=O)[C@H](CO)NC(=O)[C@H](CO)NC(=O)[C@H](Cc1c[nH]cn1)NC(=O)[C@H](CCCNC(=N)N)NC(=O)[C@H](CC(C)C)NC(=O)[C@H](Cc1ccccc1)NC(=O)[C@H](CCCNC(=N)N)NC(=O)[C@H](C)NC(=O)[C@H](CC(C)C)NC(=O)[C@H](CCCNC(=N)N)NC(=O)[C@H](CCC(N)=O)NC(=O)[C@@H](NC(=O)[C@H](C)NC(=O)[C@@H]1CSSC[C@H](NC(=O)[C@@H](N)CCCCNC(=O)CC[C@H](NC(=O)CCCCCCCCCCCCCCCCCCC(=O)O)C(=O)O)C(=O)N[C@@H](CC(N)=O)C(=O)N[C@@H]([C@@H](C)O)C(=O)N[C@@H](C)C(=O)N[C@@H]([C@@H](C)O)C(=O)N1)[C@@H](C)O)C(=O)N1CCC[C@H]1C(=O)N[C@@H](CO)C(=O)N[C@@H](CO)C(=O)N[C@H](C(=O)N1CCC[C@H]1C(=O)N[C@H](C(=O)NCC(=O)N[C@@H](CO)C(=O)N[C@@H](CC(N)=O)C(=O)N[C@H](C(=O)N[C@@H](Cc1ccc(O)cc1)C(N)=O)[C@@H](C)O)C(C)C)[C@@H](C)O [Example 63] (H-K([γGlu-C20 diacid])CNTATCATQRLARFLRHSSPNFGAIPSSTPVGSNTY-NH2; disulfide 2-7)

Continued, compound first:

Row | SMILES | IC50 [1] [pM] | EC50 [2, 4] [pM] | IC50 (human amylin receptor) [pM] | EC50 [3] [pM] | Ratio hCT/hAmylin funct. [2, 5] | Ratio hCT/hAmylin funct. [2, 6] | Ratio hCT/hAmylin funct. [2, 7] | EC50 [2, 8] [pM] | Ratio hCT/hAmylin funct. [2, 9]
4 | CC[C@H](C)[C@H](NC(=O)[C@H](C)NC(=O)CNC(=O)[C@H](Cc1ccccc1)NC(=O)[C@H](CC(N)=O)NC(=O)[C@@H]1CCCN1C(=O)[C@H](CO)NC(=O)[C@H](CO)NC(=O)[C@H](Cc1c[nH]cn1)NC(=O)[C@H](CCCNC(=N)N)NC(=O)[C@H](CC(C)C)NC(=O)[C@H](Cc1ccccc1)NC(=O)[C@H](CC(N)=O)NC(=O)[C@H](C)NC(=O)[C@H](CC(C)C)NC(=O)[C@H](CCCNC(=N)N)NC(=O)[C@H](CCC(N)=O)NC(=O)[C@@H](NC(=O)[C@H](C)NC(=O)[C@@H]1CSSC[C@H](NC(=O)[C@@H](N)CCCCNC(=O)COCCOCCNC(=O)CC[C@H](NC(=O)CCCCCCCCCCCCCCCCCCC(=O)O)C(=O)O)C(=O)N[C@@H](CC(N)=O)C(=O)N[C@@H]([C@@H](C)O)C(=O)N[C@@H](C)C(=O)N[C@@H]([C@@H](C)O)C(=O)N1)[C@@H](C)O)C(=O)N1CCC[C@H]1C(=O)N[C@@H](CO)C(=O)N[C@@H](CO)C(=O)N[C@H](C(=O)N1CCC[C@H]1C(=O)N[C@H](C(=O)NCC(=O)N[C@@H](CO)C(=O)N[C@@H](CC(N)=O)C(=O)N[C@H](C(=O)N[C@@H](Cc1ccc(O)cc1)C(N)=O)[C@@H](C)O)C(C)C)[C@@H](C)O [Example 49] | 12900 | 106 | 1190 | 2390 | – | – | – | – | –
5 | CC[C@H](C)[C@H](NC(=O)[C@H](C)NC(=O)CNC(=O)[C@H](Cc1ccccc1)NC(=O)[C@H](CC(N)=O)NC(=O)[C@@H]1CCCN1C(=O)[C@H](CO)NC(=O)[C@H](CO)NC(=O)[C@H](Cc1c[nH]cn1)NC(=O)[C@H](CCCNC(=N)N)NC(=O)[C@H](CC(C)C)NC(=O)[C@H](Cc1ccccc1)NC(=O)[C@H](CC(N)=O)NC(=O)[C@H](C)NC(=O)[C@H](CC(C)C)NC(=O)[C@H](CCCNC(=N)N)NC(=O)[C@H](CCC(N)=O)NC(=O)[C@@H](NC(=O)[C@H](C)NC(=O)[C@@H]1CSSC[C@H](NC(=O)[C@@H](N)CCCCNC(=O)COCCOCCNC(=O)CC[C@H](NC(=O)CCCCCCCCCCCCCCCCCCC(=O)O)C(=O)O)C(=O)N[C@@H](CC(N)=O)C(=O)N[C@@H]([C@@H](C)O)C(=O)N[C@@H](C)C(=O)N[C@@H]([C@@H](C)O)C(=O)N1)[C@@H](C)O)C(=O)N1CCC[C@H]1C(=O)N1CCC[C@H]1C(=O)N[C@@H](CO)C(=O)N[C@H](C(=O)N1CCC[C@H]1C(=O)N[C@H](C(=O)NCC(=O)N[C@@H](CO)C(=O)N[C@@H](CC(N)=O)C(=O)N[C@H](C(=O)N[C@@H](Cc1ccc(O)cc1)C(N)=O)[C@@H](C)O)C(C)C)[C@@H](C)O [Example 53] (H-K([AEEA-γGlu-C20 diacid])CNTATCATQRLANFLRHSSPNFGAIPPSTPVGSNTY-NH2; disulfide 2-7) | 5380 | – | 52 | 625 | 9.8 | 9.8 | 9.8 | 64 | 9.8
6 | CC[C@H](C)[C@H](NC(=O)[C@H](C)NC(=O)CNC(=O)[C@H](Cc1ccccc1)NC(=O)[C@H](CC(N)=O)NC(=O)[C@@H]1CCCN1C(=O)[C@H](CO)NC(=O)[C@H](CO)NC(=O)[C@H](Cc1c[nH]cn1)NC(=O)[C@H](CCCNC(=N)N)NC(=O)[C@H](CC(C)C)NC(=O)[C@H](Cc1ccccc1)NC(=O)[C@H](CC(N)=O)NC(=O)[C@H](C)NC(=O)[C@H](CC(C)C)NC(=O)[C@H](CCCNC(=N)N)NC(=O)[C@H](CCC(N)=O)NC(=O)[C@@H](NC(=O)[C@H](C)NC(=O)[C@@H]1CSSC[C@H](NC(=O)[C@@H](N)CCCCNC(=O)COCCOCCNC(=O)CC[C@H](NC(=O)CCCCCCCCCCCCCCCCCCC(=O)O)C(=O)O)C(=O)N[C@@H](CC(N)=O)C(=O)N[C@@H]([C@@H](C)O)C(=O)N[C@@H](C)C(=O)N[C@@H]([C@@H](C)O)C(=O)N1)[C@@H](C)O)C(=O)N1CCC[C@H]1C(=O)N[C@@H](CO)C(=O)N1CCC[C@H]1C(=O)N[C@H](C(=O)N[C@@H](CC(N)=O)C(=O)N[C@H](C(=O)NCC(=O)N1CCC[C@H]1C(=O)N[C@@H](CC(N)=O)C(=O)N[C@H](C(=O)N[C@@H](Cc1ccc(O)cc1)C(N)=O)[C@@H](C)O)C(C)C)[C@@H](C)O [Example 56] (H-K([AEEA-γGlu-C20 diacid])CNTATCATQRLANFLRHSSPNFGAIPSPTNVGPNTY-NH2; disulfide 2-7) | 2090 | – | 49 | 506 | 5.0 | 5.0 | 5.0 | 102 | 5.0
